Assay results from the METLIN SMRT retention time set (Domingo-Almenara et al. 2019).

Test: gradient 5% acetonitrile 3 min, to 50% in 2 min, to 85% in 15 min, held 3 min, 100 µL/min
Conditions: column: Zorbax Extend-C18 2.1 x 50 mm; eluents: water / acetonitrile, 0.1% formic acid
Procedure, shortened: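 Over 3 months, pure standards in mixtures of ~100 molecules were run by HPLC coupled to a quadrupole time-of-flight mass spectrometer in positive and negative ionization mode. The column was a Zorbax Extend-C18 (2.1 × 50 mm, 1.8 μm) at 100 μL/min, eluted with water and acetonitrile each holding 0.1% formic acid, with 40 μL dead and 900 μL dwell volumes. Retention time was determined from adduct peaks chosen by software and checked manually.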

Row | SMILES | RP-LC retention time
1 | O=C(NCCCc1ccccc1)C1CCN(C(=O)c2ncn3c2COC(c2ccccc2)C3)CC1 (centres undefined) | 821 s
2 | NC(=O)Nc1cc(-c2cccc(F)c2)sc1C(=O)N[C@H]1CCCNC1 | 650 s
3 | CN(CC1CCOC1)C(=O)Nc1ccccc1 (centres undefined) | 653 s
4 | Cc1cc2c(cc(C(=O)NCCCc3ccccc3)n2Cc2ccc(Cl)cc2)o1 | 1270 s
5 | COc1cccc(Cn2ccn3nc(-c4ccc5c(c4)OCO5)cc3c2=O)c1 | 970 s
6 | COc1ccc(C(=O)Nc2nccnc2C(=O)NCC2CCCCC2)cc1 | 1120 s
7 | CCCCOc1ccc(-c2nc(C3CC(=O)N(c4ccc(OC)cc4)C3)no2)cc1 (centres undefined) | 1200 s
8 | COc1cccc(-c2nc(-c3ccc4c(c3)ncn4CCN3CCCCC3)no2)c1 | 657 s
9 | Cn1nc(C(=O)Nc2ccccc2)c2c1CCN(C(=O)Nc1ccc(Br)cc1F)C2 | 956 s
10 | COc1ccc(-c2nc(-c3ccc4c(c3)oc(=O)n4C)no2)cc1 | 1020 s
11 | O=C(Cc1ccc(F)cc1)N1CCC2(CC1)N=C(c1ccc(Cl)cc1)NO2 | 889 s
12 | Cc1cc(C)c2c(N3CCSCC3)nc(C(=O)NCC(C)C)nc2n1 | 658 s
13 | O=C(Cn1c(=O)c2cccn2c2ccc(F)cc21)N1CCC(N2CCCCC2)CC1 | 606 s
14 | COc1ccc(S(=O)(=O)N2CCCC(C(=O)NCCCOC(C)C)C2)cc1C (centres undefined) | 877 s
15 | O=C(Nc1ccc(F)cc1)C1CCCN(c2nnc3ccc(Cl)cn23)C1 (centres undefined) | 689 s
16 | CCOc1ccc(S(=O)(=O)N2CCCC(C(=O)Nc3ccc(S(N)(=O)=O)cc3)C2)cc1C (centres undefined) | 876 s
17 | O=C(Nc1nnc(C2=COCCO2)o1)C1CCN(S(=O)(=O)c2cccs2)CC1 | 643 s
18 | CCOC1CCN(C(=O)NC(C)(C)C)CC1 | 700 s
19 | CC(C)n1c(=O)oc2cc(-c3noc(-c4cc(F)ccc4Cl)n3)ccc21 | 1230 s
20 | O=C1C(Br)=Cc2cccc3cccc1c23 | 996 s
21 | COc1ccc(C(=O)N2CCCn3cc(-c4ccccc4F)nc32)cn1 | 587 s

Row | SMILES | RP-LC retention time
22 | COCCNC(=O)C(C)n1c(=O)c(C(F)(F)F)nc2cc(C)c(C)cc21 (centres undefined) | 986 s
23 | O=S(=O)(Nc1ccc(F)cc1F)c1ccc2c(c1)-c1oncc1CO2 | 873 s
24 | COc1ccc(OC)c(NC(=O)c2c(OC)cc(=O)n3c2CCCC3)c1 | 695 s
25 | Cc1ccc(NC(=O)Cn2ccc3sccc3c2=O)c(Cl)c1 | 802 s
26 | CCc1ccc(N2CCn3c2nc2c3c(=O)n(CC(=O)O)c(=O)n2C)cc1 | 785 s
27 | O=C(Nc1cc(-c2cccs2)no1)c1cccc(F)c1 | 959 s
28 | CCc1cccc(NC(=O)CN2C(=O)NC3(CCCCC3)C2=O)c1 | 805 s
29 | Cn1c(=O)oc2cc(-c3noc(CNS(=O)(=O)c4ccccc4)n3)ccc21 | 805 s
30 | Cc1nn(-c2nc(-c3ccccc3)cs2)c(C)c1CC(=O)Nc1ccc(F)cc1 | 1130 s
31 | CCCn1cnc2cc(CNC(=O)C3CC(=O)N(c4cccc(Cl)c4)C3)ccc21 (centres undefined) | 659 s
32 | COC(=O)c1ccc(NC(=O)c2cnc3c(c2)c(=O)n(C)c(=O)n3-c2ccccc2)cc1 | 879 s
33 | CCc1ccc(C2=C(C)C(N3CCCN(C(=O)COC)CC3)=NS2(=O)=O)cc1 | 742 s
34 | COC(=O)C(C)NC(=O)N1CCC2(CC1)NC(=O)c1ccccc1O2 (centres undefined) | 621 s
35 | Cc1noc(C2(NC(=O)c3ccc(C(C)(C)C)cc3)CCCCC2)n1 | 1090 s
36 | Cc1sc(NC(=O)c2cccs2)nc1-c1ccc2c(c1)N(C)C(=O)CO2 | 942 s
37 | CCC(=O)N(C1CCOCC1)C1CCN(S(=O)(=O)c2ccc(F)cc2)CC1 | 792 s
38 | CC(=O)Nc1ccc(S(=O)(=O)N=S(C)C)cc1 | 608 s
39 | COc1ccc(-c2nc(C)cc(C)c2CNC(=O)C2CCCC2)cc1 | 638 s
40 | O=C(C1CCC1)N1CCc2c([nH]c3ccccc23)C1c1ccc(Cl)cc1 (centres undefined) | 1230 s
41 | CCCn1cc(S(=O)(=O)Nc2cc(F)cc(F)c2)c2cccnc21 | 890 s
42 | CCOc1cc2c(cc1OCC)C(c1ccc(OC)c(OC)c1OC)CC(=O)N2 (centres undefined) | 836 s

Row | SMILES | RP-LC retention time
43 | O=C(NCC1CCN(c2cc(-c3cccnc3)[nH]n2)CC1)c1ccc2c(c1)OCO2 | 600 s
44 | Cc1ccc(Nc2c(-c3ccc([N+](=O)[O-])cc3)nc3cc(C)ccn23)cc1 | 790 s
45 | CCc1nn(CC)c(=O)c2cc(S(=O)(=O)NCc3ccc(F)c(Cl)c3)cn12 | 1010 s
46 | COc1ccc(-n2c(=O)n(C)c(=O)c3cc(C(=O)NC(C)c4ccc(F)cc4)cnc32)cc1 (centres undefined) | 888 s
47 | Cn1c(=O)c(C(=O)NCc2ccccc2Cl)nc2cccnc21 | 728 s
48 | O=c1cccc2n1CC1CC2CN(Cc2nnc(-c3cccc(Br)c3)o2)C1 (centres undefined) | 803 s
49 | COC(=O)c1ncn2c1C(=O)N(c1ccc(C)cc1)C(C)(C(=O)NCc1ccccc1)C2 (centres undefined) | 692 s
50 | Cc1nnc(N2CCC(C(=O)NCCN3CCOCC3)CC2)c2nn(-c3ccc(Cl)cc3)c(C)c12 | 571 s
51 | Cc1nc(CNS(=O)(=O)c2cc([N+](=O)[O-])ccc2C)cs1 | 716 s
52 | COC(=O)C1=CN(c2ccc(F)cc2C)c2ccccc2S1(=O)=O | 911 s
53 | O=C(CSc1nccn1-c1cccc(Cl)c1)Nc1ccccc1F | 841 s
54 | CCn1cnc2ccc(-c3noc(COc4cccc(C)c4)n3)cc21 | 808 s
55 | CCCNC(=O)C1CCCN(c2ccc(SCC(=O)Nc3ccccc3C(=O)OC)nn2)C1 (centres undefined) | 705 s
56 | O=C(c1ccncc1)N1CCc2c([nH]c3ccccc23)C1c1ccc(Cl)cc1 (centres undefined) | 1000 s
57 | CS(=O)(=O)c1ccc(SCC(=O)N2CCOCC2)c([N+](=O)[O-])c1 | 636 s
58 | CC1CCC(NC(=O)C2CCN(c3nc4ccccc4[nH]3)CC2)CC1 (centres undefined) | 649 s
59 | CCN1CCN(C(=O)c2nc(N3CCSCC3)c3cnn(C)c3n2)CC1 | 604 s
60 | CC(C)n1cnc2cc(CNC(=O)CCc3ccccc3)ccc21 | 631 s
61 | Cn1c(C(=O)NCCN2CCOCC2)cc2c(=O)oc3ccccc3c21 | 603 s
62 | O=C(NCCN1CCCCC1)c1ccc(I)cc1 | 678 s

The next lines start with the values.

Row | RP-LC retention time | SMILES
63 | 1060 s | CC1CCN(c2cc(-n3cnc(C(=O)N4CCc5ccccc5C4)c3)ncn2)CC1
64 | 587 s | COc1cc(NC(=O)CN2CCN(c3ccccn3)CC2)cc(OC)c1
65 | 996 s | O=C(Cn1cccc1-c1nnc(-c2ccccc2)o1)N1CCN(c2ccccc2F)CC1
66 | 807 s | CN1C(=O)c2ccccc2Oc2ccc(C(=O)N3CCCCC3)cc21
67 | 807 s | Cc1nc(CCNS(=O)(=O)c2cccc(C(F)(F)F)c2)no1
68 | 936 s | CC(C)n1cc(S(=O)(=O)Nc2ccc(F)c(F)c2)c2cccnc21
69 | 697 s | Cc1nc2c(C(=O)N3CCN(c4ccccn4)CC3)cnn2c(C)c1Cc1ccccc1Cl
70 | 573 s | Cc1ccc(C(O)CN2CCN(c3ccccn3)CC2)c(C)c1 (centres undefined)
71 | 686 s | O=C(Cn1cnc2nc(N3CCCC(C(=O)NC4CC4)C3)sc2c1=O)Nc1ccccc1Cl (centres undefined)
72 | 696 s | CSc1cccc(NC(=O)Cn2cnc3nc(N4CCC(C(=O)NC5CC5)CC4)sc3c2=O)c1
73 | 952 s | O=S(=O)(c1ccc2ccccc2c1)N1CCC(c2nc(-c3ccccn3)no2)CC1
74 | 961 s | CC1Cc2ccccc2N1S(=O)(=O)c1cc2c3c(c1)CCC(=O)N3CCC2 (centres undefined)
75 | 914 s | CC(C)c1ccc(-n2nc(N3CCN(C(=O)c4ccc5c(c4)OCO5)CC3)ccc2=O)cc1
76 | 674 s | Cc1nnsc1C(=O)N1CCC(CNC(=O)c2ccccc2C(F)(F)F)CC1
77 | 887 s | Cc1sc(C)c(S(=O)(=O)N2CCN(c3ccccn3)CC2)c1-c1cc(C(F)(F)F)on1
78 | 832 s | Cc1ccc(-c2noc(-c3cccc(S(=O)(=O)NCCCN4CCCCCC4)c3)n2)cc1
79 | 765 s | COc1ccc(C2CC(=O)c3c(C)nc(N4CCN(c5ccccn5)CC4)nc3C2)c(OC)c1 (centres undefined)
80 | 726 s | CCn1cnc(S(=O)(=O)N2CCCC(C(=O)NCc3ccccc3C)C2)c1 (centres undefined)
81 | 631 s | COc1ccc(OC)c(NC(=O)N2CCC(n3c(C)nc4cccnc43)CC2)c1
82 | 654 s | Cc1nc2cccnc2n1CC1CCCN(S(=O)(=O)Cc2ccccc2)C1 (centres undefined)
83 | 1040 s | Cc1ccc(-n2c(N3CCCC(C(=O)Nc4ccc(F)c(C)c4)C3)nc3ccsc3c2=O)cc1 (centres undefined)
84 | 567 s | COc1ccccc1N1CCN(CCNC(=O)c2c(F)cccc2F)CC1
85 | 629 s | CCN1CCN(c2cc(C(=O)O)c3cc(NS(=O)(=O)c4cc(C)c(C)cc4C)ccc3n2)CC1
86 | 1010 s | Cc1nn(-c2ccccc2)c(C)c1S(=O)(=O)N1CCC(C(=O)NC2CCCc3ccccc32)CC1 (centres undefined)
87 | 602 s | CN1CCN(CC(=O)N2CCNC(=O)C2CC(=O)Nc2cccc(C(F)(F)F)c2)CC1 (centres undefined)
88 | 948 s | CCn1cc(S(=O)(=O)N2CCC(CCOc3ccccc3F)C2)cn1 (centres undefined)
89 | 777 s | CCc1cc(C2CCCN2C(=O)Cc2ccccc2F)on1 (centres undefined)
